Experimental data as given in ChEMBL document CHEMBL1201861, “Genomics of Drug Sensitity in Cancer screening data, Wellcome Trust Sanger Institute”.
“And” between values parts separate entries of the source, which are not always exact repeats. Identical values can stand only once.

Columns and labels:
OC-314 = assay: cells; format: functional, cell-based; details: Homo sapiens
Description: SANGER: Inhibition of human OC-314 cell growth in a cell viability assay.

YH-13 = assay: cells; format: functional, cell-based; details: Homo sapiens;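 also: cell viability readout of growth suppression in the human YH-13 cell line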
Description: SANGER: Inhibition of human YH-13 cell growth in a cell viability assay.

CHP-134 = assay: SANGER: Inhibition of human CHP-134 cell growth in a cell viability assay.; format: functional, cell-based
CFPAC-1 = assay: cells; format: functional, cell-based; details: Homo sapiens;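 also: cell viability readout used to gauge suppression of CFPAC-1 cell proliferation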
Description: SANGER: Inhibition of human CFPAC-1 cell growth in a cell viability assay.

HCT-15 = assay: cells; format: functional, cell-based, Homo sapiens;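 also: cell viability readout, IC50 reflecting suppression of HCT-15 cell growth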
Description: SANGER: Inhibition of human HCT-15 cell growth in a cell viability assay.

RH-18 = assay: cells; format: functional, cell-based; details: Homo sapiens, Rh18;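 also: growth inhibition of human RH-18 cells, read out with a cell viability assay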
Description: SANGER: Inhibition of human RH-18 cell growth in a cell viability assay.

LU-135 = assay: cells; format: functional, cell-based; details: Homo sapiens
Description: SANGER: Inhibition of human LU-135 cell growth in a cell viability assay.

NCI-H460 = assay: cells; format: functional, cell-based, Homo sapiens;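 also: cell viability assay scoring growth inhibition of human NCI-H460 cells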
Description: SANGER: Inhibition of human NCI-H460 cell growth in a cell viability assay.

NCI-H838 = assay: cells; format: functional, cell-based; details: Homo sapiens;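 also: growth inhibition of human NCI-H838 cells, read out by a cell viability assay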
Description: SANGER: Inhibition of human NCI-H838 cell growth in a cell viability assay.

RT-4 = assay: SANGER: Inhibition of human RT4 cell growth in a cell viability assay.; format: functional, cell-based; details: rt-4
TE-15 = assay: cells; format: functional, cell-based; details: Homo sapiens;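 also: cell viability readout of growth inhibition in TE-15 cells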
Description: SANGER: Inhibition of human TE-15 cell growth in a cell viability assay.

MFE-296 = assay: SANGER: Inhibition of human MFE-296 cell growth in a cell viability assay.; format: functional, cell-based
NCI-H345 = assay: cells; format: functional, cell-based; details: Homo sapiens;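 also: growth inhibition of NCI-H345 cells measured with a cell viability assay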
Description: SANGER: Inhibition of human NCI-H345 cell growth in a cell viability assay.

SNU-475 = assay: cells; format: functional, cell-based; details: Homo sapiens
Description: SANGER: Inhibition of human SNU-475 cell growth in a cell viability assay.

Caov-3 cell line = assay: cells; format: functional, cell-based; details: Homo sapiens;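 also: cell growth inhibition read out by a viability assay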
Description: SANGER: Inhibition of human Caov-3 cell growth in a cell viability assay.

SNU-C1 = assay: cells; format: functional, cell-based; details: Homo sapiens;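 also: growth inhibition of SNU-C1 human cells, read out by a cell viability assay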
Description: SANGER: Inhibition of human SNU-C1 cell growth in a cell viability assay.

IPC-298 = assay: SANGER: Inhibition of human IPC-298 cell growth in a cell viability assay.; format: functional, cell-based
EVSA-T = assay: cells; format: functional, cell-based, Homo sapiens; details: evsa-t;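 also: growth inhibition of EVSA-T cells, read out with a cell viability assay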
Description: SANGER: Inhibition of human EVSA-T cell growth in a cell viability assay.

NCI-H716 = assay: cells; format: functional, cell-based; details: Homo sapiens;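 also: growth inhibition of human NCI-H716 cells, measured by a cell viability assay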
Description: SANGER: Inhibition of human NCI-H716 cell growth in a cell viability assay.

L-540 = assay: cells; format: functional, cell-based; details: Homo sapiens;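 also: growth inhibition of the human L-540 cell line, read out with a viability assay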
Description: SANGER: Inhibition of human L-540 cell growth in a cell viability assay.

EFE-184 = assay: cells; format: functional, cell-based; details: Homo sapiens
Description: SANGER: Inhibition of human EFE-184 cell growth in a cell viability assay.

MRK-nu-1 = assay: cells; format: functional, cell-based; details: Homo sapiens;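 also: cell viability assay measuring growth suppression of human MRK-nu-1 cells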
Description: SANGER: Inhibition of human MRK-nu-1 cell growth in a cell viability assay.

PLC-PRF-5 = assay: cells; format: functional, cell-based; details: Homo sapiens;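 also: growth inhibition of human PLC-PRF-5 cells, read out with a viability assay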
Description: SANGER: Inhibition of human PLC-PRF-5 cell growth in a cell viability assay.

SIMA = assay: cells; format: functional, cell-based, Homo sapiens; details: sima;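 also: growth inhibition of SIMA cells, measured with a cell viability readout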
Description: SANGER: Inhibition of human SIMA cell growth in a cell viability assay.

MDA-MB-468 = assay: cells; format: functional, cell-based; details: Homo sapiens
Description: SANGER: Inhibition of human MDA-MB-468 cell growth in a cell viability assay.

RL95-2 = assay: cells; format: functional, cell-based; details: Homo sapiens;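 also: RL95-2 growth inhibition determined through a cell viability readout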
Description: SANGER: Inhibition of human RL95-2 cell growth in a cell viability assay.

ECC4 = assay: cells; format: functional, cell-based; details: Homo sapiens;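 also: growth inhibition of ECC4 cells, read out with a cell viability assay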
Description: SANGER: Inhibition of human ECC4 cell growth in a cell viability assay.

HCC1143 = assay: cells; format: functional, cell-based; details: Homo sapiens;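 also: growth inhibition of human HCC1143 cells, read out with a cell viability assay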
Description: SANGER: Inhibition of human HCC1143 cell growth in a cell viability assay.

YT = assay: cells; format: functional, cell-based; details: Homo sapiens
Description: SANGER: Inhibition of human YT cell growth in a cell viability assay.

OPM-2 = assay: cells; format: functional, cell-based; details: Homo sapiens;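 also: growth of OPM-2 cells measured with a viability assay, IC50 for suppression of proliferation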
Description: SANGER: Inhibition of human OPM-2 cell growth in a cell viability assay.

DV-90 = assay: cells; format: functional, cell-based; details: Homo sapiens;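 also: Read-out is a viability assay, with IC50 reflecting the drop in DV-90 cell growth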
Description: SANGER: Inhibition of human DV-90 cell growth in a cell viability assay.

CCF-STTG1 = assay: cells; format: functional, cell-based; details: Homo sapiens;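 also: growth inhibition of human CCF-STTG1 cells, determined with a cell viability read-out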
Description: SANGER: Inhibition of human CCF-STTG1 cell growth in a cell viability assay.

CA46 = assay: cells; format: functional, cell-based; details: Homo sapiens;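 also: growth inhibition of human CA46 cells, read out by a cell viability assay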
Description: SANGER: Inhibition of human CA46 cell growth in a cell viability assay.

UACC-812 = assay: cells; format: functional, cell-based; details: Homo sapiens
Description: SANGER: Inhibition of human UACC-812 cell growth in a cell viability assay.

NCI-H1618 = assay: cells; format: functional, cell-based; details: Homo sapiens;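 also: growth inhibition of human NCI-H1618 cells, measured by a cell viability assay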
Description: SANGER: Inhibition of human NCI-H1618 cell growth in a cell viability assay.

Calu-1 = assay: SANGER: Inhibition of human Calu-1 cell growth in a cell viability assay.; format: functional, cell-based
BC1 cell line = assay: SANGER: Inhibition of human BC-1 cell growth in a cell viability assay.; format: functional, cell-based
NCI-H1963 = assay: cells; format: functional, cell-based; details: Homo sapiens
Description: SANGER: Inhibition of human NCI-H1963 cell growth in a cell viability assay.

PF-382 = assay: cells; format: functional, cell-based; details: Homo sapiens
Description: SANGER: Inhibition of human PF-382 cell growth in a cell viability assay.

NB1 = assay: cells; format: functional, cell-based; details: Homo sapiens;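 also: reduction of NB1 cell proliferation, read out with a viability assay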
Description: SANGER: Inhibition of human NB1 cell growth in a cell viability assay.

CAL-148 = assay: cells; format: functional, cell-based; details: Homo sapiens
Description: SANGER: Inhibition of human CAL-148 cell growth in a cell viability assay.

IM-9 = assay: SANGER: Inhibition of human IM-9 cell growth in a cell viability assay.; format: functional, cell-based
SK-CO-1 = assay: cells; format: functional, cell-based; details: Homo sapiens;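 also: growth inhibition of SK-CO-1 cells, determined by a viability readout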
Description: SANGER: Inhibition of human SK-CO-1 cell growth in a cell viability assay.

NCI-H2196 = assay: cells; format: functional, cell-based; details: Homo sapiens;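 also: cell viability assay used as the readout of growth inhibition in NCI-H2196 cells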
Description: SANGER: Inhibition of human NCI-H2196 cell growth in a cell viability assay.

IST-SL2 = assay: cells; format: functional, cell-based; details: Homo sapiens;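 also: growth inhibition of human IST-SL2 cells, read out by a cell viability assay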
Description: SANGER: Inhibition of human IST-SL2 cell growth in a cell viability assay.

BL-41 = assay: cells; format: functional, cell-based; details: Homo sapiens;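 also: growth inhibition of human BL-41 cells, read out with a cell viability assay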
Description: SANGER: Inhibition of human BL-41 cell growth in a cell viability assay.

SNG-M = assay: cells; format: functional, cell-based; details: Homo sapiens
Description: SANGER: Inhibition of human SNG-M cell growth in a cell viability assay.

NCI-H322M = assay: cells; format: functional, cell-based; details: Homo sapiens;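 also: cell viability assay measuring inhibition of growth of human NCI-H322M cells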
Description: SANGER: Inhibition of human NCI-H322M cell growth in a cell viability assay.

EHEB = assay: cells; format: functional, cell-based; details: Homo sapiens;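 also: growth inhibition of human EHEB cells, read out with a cell viability assay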
Description: SANGER: Inhibition of human EHEB cell growth in a cell viability assay.

NCI-H2227 = assay: cells; format: functional, cell-based; details: Homo sapiens;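 also: growth inhibition of the human cell line, read out with a cell viability assay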
Description: SANGER: Inhibition of human NCI-H2227 cell growth in a cell viability assay.

CHP-126 = assay: cells; format: functional, cell-based; details: Homo sapiens
Description: SANGER: Inhibition of human CHP-126 cell growth in a cell viability assay.

Kasumi 1 = assay: cells; format: functional, cell-based; details: Homo sapiens;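 also: growth inhibition of human Kasumi-1 cells, read out by a cell viability assay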
Description: SANGER: Inhibition of human KASUMI-1 cell growth in a cell viability assay.

LB647-SCLC = assay: cells; format: functional, cell-based; details: Homo sapiens;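 also: cell growth inhibition, read out by a viability assay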
Description: SANGER: Inhibition of human LB647-SCLC cell growth in a cell viability assay.

NCI-H187 = assay: cells; format: functional, cell-based; details: Homo sapiens;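 also: growth inhibition of NCI-H187 cells, read out as cell viability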
Description: SANGER: Inhibition of human NCI-H187 cell growth in a cell viability assay.

TT = assay: cells; format: functional, cell-based; details: Homo sapiens
Description: SANGER: Inhibition of human TT cell growth in a cell viability assay.

IMR-5 = assay: cells; format: functional, cell-based; details: Homo sapiens;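 also: growth inhibition of human IMR-5 cells, read out with a cell viability assay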
Description: SANGER: Inhibition of human IMR-5 cell growth in a cell viability assay.

ECC12 = assay: cells; format: functional, cell-based; details: Homo sapiens
Description: SANGER: Inhibition of human ECC12 cell growth in a cell viability assay.

COLO 205 = assay: cells; format: functional, cell-based; details: Homo sapiens
Description: SANGER: Inhibition of human COLO-205 cell growth in a cell viability assay.

CCOc1nc(NC(=O)Cc2cc(OC)ccc2OC)cc(N)c1C#N
IC50 (OC-314): > 10 µM | IC50 (YH-13): > 10 µM | IC50 (CHP-134): > 10 µM | IC50 (CFPAC-1): > 10 µM | IC50 (HCT-15; Homo sapiens, HCT-15): > 10 µM | IC50 (RH-18): > 10 µM | IC50 (LU-135): > 10 µM | IC50 (NCI-H460; Homo sapiens, NCI-H460): > 10 µM

CC(=O)O[C@@H]1[C@@H](OC(C)=O)[C@@H](O)[C@H](Oc2c(-c3ccc(O)cc3)oc3cc(O)cc(O)c3c2=O)O[C@H]1C
IC50 (OC-314): > 10 µM | IC50 (YH-13): > 10 µM | IC50 (CHP-134): > 10 µM | IC50 (CFPAC-1): > 10 µM | IC50 (HCT-15; Homo sapiens, HCT-15): > 10 µM | IC50 (RH-18): > 10 µM | IC50 (LU-135): > 10 µM | IC50 (NCI-H460; Homo sapiens, NCI-H460): > 10 µM

COc1cc(F)c(F)c(Nc2ccc(I)cc2F)c1NS(=O)(=O)C1(CC(O)CO)CC1 (stereo unspecified)
IC50 (OC-314): > 5 µM | IC50 (YH-13): 2.68 µM | IC50 (CHP-134): > 5 µM | IC50 (CFPAC-1): > 5 µM | IC50 (RH-18): > 5 µM | IC50 (LU-135): > 5 µM | IC50 (NCI-H460; Homo sapiens, NCI-H460): 2.52 µM

O=C1N=C(NCc2cccs2)S/C1=C\c1ccc2ncccc2c1
IC50 (OC-314): > 5 µM | IC50 (YH-13): 4.76 µM | IC50 (CHP-134): > 5 µM | IC50 (CFPAC-1): > 5 µM | IC50 (RH-18): > 5 µM | IC50 (LU-135): > 5 µM | IC50 (NCI-H460; Homo sapiens, NCI-H460): > 5 µM

Cc1cc([C@@H](C)Nc2ccccc2C(=O)O)c2nc(N3CCOCC3)cc(=O)n2c1 [AZD-6482]
IC50 (NCI-H838): > 5.12 µM | IC50 (OC-314): > 5.12 µM | IC50 (RT-4): > 5.12 µM | IC50 (YH-13): 1.95 µM | IC50 (TE-15): 4.67 µM | IC50 (MFE-296): 1.57 µM | IC50 (NCI-H345): > 5.12 µM | IC50 (SNU-475): > 5.12 µM | IC50 (Caov-3 cell line): > 5.12 µM | IC50 (SNU-C1): > 5.12 µM | IC50 (IPC-298): > 5.12 µM | IC50 (EVSA-T): 3.38 µM and > 5.12 µM | IC50 (NCI-H716): > 5.12 µM | IC50 (CFPAC-1): > 5.12 µM | IC50 (L-540): > 5.12 µM | IC50 (EFE-184): > 5.12 µM | IC50 (MRK-nu-1): > 5.12 µM | IC50 (PLC-PRF-5): > 5.12 µM | IC50 (SIMA): > 5.12 µM | IC50 (MDA-MB-468): 1.54 µM | IC50 (HCT-15; hct-15): > 5.12 µM | IC50 (RL95-2): > 5.12 µM | IC50 (ECC4): > 5.12 µM | IC50 (HCC1143): > 5.12 µM | IC50 (YT): 0.121 µM | IC50 (OPM-2): > 5.12 µM | IC50 (DV-90): > 5.12 µM | IC50 (CCF-STTG1): 1.43 µM | IC50 (RH-18): > 5.12 µM | IC50 (CA46): > 5.12 µM | IC50 (UACC-812): > 5.12 µM | IC50 (NCI-H1618): > 5.12 µM | IC50 (Calu-1): > 5.12 µM | IC50 (BC1 cell line): > 5.12 µM | IC50 (NCI-H1963): > 5.12 µM | IC50 (PF-382): > 5.12 µM | IC50 (NCI-H460; nci-h460): > 5.12 µM | IC50 (NB1): > 5.12 µM | IC50 (CAL-148): 4.18 µM | IC50 (IM-9): > 5.12 µM | IC50 (SK-CO-1): > 5.12 µM | IC50 (NCI-H2196): > 5.12 µM | IC50 (IST-SL2): > 5.12 µM | IC50 (BL-41): > 5.12 µM | IC50 (SNG-M): > 5.12 µM | IC50 (NCI-H322M): > 5.12 µM | IC50 (EHEB): 2.98 µM | IC50 (NCI-H2227): > 5.12 µM | IC50 (CHP-126): > 5.12 µM | IC50 (Kasumi 1): 2.06 µM | IC50 (LB647-SCLC): > 5.12 µM | IC50 (NCI-H187): > 5.12 µM | IC50 (TT): > 5.12 µM | IC50 (IMR-5): > 5.12 µM | IC50 (ECC12): > 5.12 µM | IC50 (COLO 205): > 5.12 µM
